Experimental data as given in patent publication US9512128B2 (BAYER CROPSCIENCE AG, priority 2012, dated 2016).
Read-outs that look alike come from different tables or passages of the source.

How the values were obtained:
[1] = log P by HPLC on reversed-phase columns (C 18), EEC directive 79/831 Annex V.A8; assay type: physicochemical; conditions: for logP[a]: method [a]; for logP[b]: method [b]; for chromatographic logP: reversed-phase C18 HPLC column
Outline: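 Measured by reversed-phase C18 HPLC (LC-MS) with a linear 10→95% acetonitrile gradient. Acidic: pH 2.7, 0.1% formic acid. Neutral: pH 7.8, 0.001 M ammonium bicarbonate.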

[2] = test system: southern root-knot nematode (Meloidogyne incognita); experiment: Meloidogyne incognita test (MELGIN); assay type: in vivo; conditions: application rate 20 ppm, after 14 days, lettuce
Description: 5. Meloidogyne incognita Test (MELGIN) • Solvent: 125.0 parts by weight of acetone To prepare a suitable active compound preparation, 1 part by weight of active compound is mixed with the stated amount of solvent and the concentrate is diluted with water to the desired concentration. Vessels are filled with sand, active compound solution, an egg/larvae suspension of the southern root-knot nematode (Meloidogyne incognita) and lettuce seeds. The lettuce seeds germinate and the plants develop. On the roots, galls are formed. After 14 days, the nematicidal effect in % is determined by the formation of galls. 100% means that no galls have been found; 0% means that the number of galls on the treated plants corresponds to the untreated control.

[3] = test system: greenhouse red spider mite (Tetranychus urticae); experiment: Tetranychus urticae spray test, OP-resistant (TETRUR); assay type: in vivo; conditions: application rate 500 g/ha, after 6 days, bean leaf discs
Description: 4. Tetranychus urticae Spray Test, OP-Resistant (TETRUR)
• Solvents: 78.0 parts by weight of acetone • 1.5 part by weight of dimethylformamide • Emulsifier: 0.5 part by weight of alkylaryl polyglycol ether
To produce a suitable preparation of active compound, 1 part by weight of active compound is mixed with the stated amounts of solvents and emulsifier, and the concentrate is diluted with emulsifier-containing water to the desired concentration.
Discs of bean leaves (Phaseolus vulgaris) which are infested by all stages of the greenhouse red spider mite (Tetranychus urticae) are sprayed with an active compound preparation of the desired concentration.
After 6 days, the efficacy in % is determined. 100% means that all of the spider mites have been killed; 0% means that none of the spider mites have been killed.

| Compound | logP[a] [1] | logP[b] [1] | nematicidal effect in % (formation of galls) [2] [%] | efficacy in % (spider mites killed) [3] [%] | other results |
| --- | --- | --- | --- | --- | --- |
| Cc1cc(F)c(-n2cnc3c(cnn3CC(F)(F)F)c2=O)cc1[S+]([O-])CC(F)(F)F (racemic) [Compound 18] | 2.34 | 2.33 | 90 | – | – |
| Cn1ncc2c(=O)n(-c3ccc(C#N)c([S+]([O-])CC(F)(F)F)c3)cnc21 (racemic) [Compound 26] | 1.51 | 1.56 | – | 90 | – |
| Cc1nn(C)c2ncn(-c3ccc(C(F)(F)F)c([S+]([O-])CC(F)(F)F)c3)c(=O)c12 (racemic) [Compound 32] | 2.39 | 2.34 | 90 | – | – |
| Cc1c2c(=O)n(-c3ccc(Cl)c([S+]([O-])CC(F)(F)F)c3)cnc2nn1C (racemic) [Compound 49] | 1.78 | 1.75 | 90 | – | – |
| CCn1cnc2c(=O)n(-c3cc([S+]([O-])CC(F)(F)F)c(C)cc3F)cnc21 (racemic) [Compound 54] | 1.60 | 1.59 | – | 100 | – |
| Cc1cc(F)c(-n2c(C(F)(F)F)nc3c(cnn3CC(F)(F)F)c2=O)cc1SCC(F)(F)F [Compound 19] | 4.20 | 4.10 | 90 | – | – |
| Cc1cc(F)c(-n2c(C)nc3c(cnn3CC(F)(F)F)c2=O)cc1SCC(F)(F)F [Compound 20] | 3.50 | 3.44 | – | 90 | – |
| Cc1cc(F)c(-n2cnc3cnn(C)c3c2=O)cc1SCC(F)(F)F [Compound 38] | 2.76 | 2.76 | – | 90 | – |
| Cc1cc(F)c(-n2c(C)nc3cnn(C)c3c2=O)cc1SCC(F)(F)F [Compound 39] | 2.94 | 2.87 | – | 90 | – |
| Cc1cc(F)c(-n2c(C(F)(F)F)nc3nn(C)cc3c2=O)cc1[S+]([O-])CC(F)(F)F (stereo not shown) [Compound 43] | – | – | 90 | – | – |
| Cc1c2c(=O)n(-c3ccc(C(F)(F)F)c(SCC(F)(F)F)c3)cnc2nn1C [Compound 45] | 2.70 | 2.63 | 80 | – | – |
| Cc1cc(F)c(-n2cnc3c(ncn3C)c2=O)cc1SCC(F)(F)F [Compound 52] | 2.17 | 2.11 | – | 90 | – |
| O=c1c2ncsc2ncn1-c1cc(SCC(F)(F)F)c(Cl)cc1Cl [Compound 63] | 2.83 | 2.77 | 90 | – | – |
| Cc1cc(F)c(-n2c(C)nc3scnc3c2=O)cc1SCC(F)(F)F [Compound 64] | 2.72 | 2.70 | 90 | – | – |
| Cc1cc(C)c([S+]([O-])CC(F)(F)F)cc1-n1cnc2scnc2c1=O (stereo not shown) [Compound 66] | 1.6 | 1.62 | – | 90 | – |
| Cc1cc(F)c(-n2c(C)nc3scnc3c2=O)cc1[S+]([O-])CC(F)(F)F (stereo not shown) [Compound 68] | 1.72 | 1.70 | – | 90 | – |
| Cc1nc2c(=O)n(-c3cc(SCC(F)(F)F)c(C)cc3F)cnc2s1 [Compound 70] | 2.80 | 2.74 | 90 | – | – |
| Cc1cc(C)c(-n2cnc3ncsc3c2=O)cc1SCC(F)(F)F [Compound 76] | 2.62 | 2.59 | – | 90 | – |
| O=c1c2ccsc2ncn1-c1ccc(Cl)c([S+]([O-])CC(F)(F)F)c1 (stereo not shown) [Compound 87] | 2.20 | 2.17 | 100 | – | – |
| Cc1cc(C)c(-n2cnc3sccc3c2=O)cc1SCC(F)(F)F [Compound 91] | 3.34 | 3.25 | – | 100 | – |
| Cc1cc(F)c(-n2cnc3sccc3c2=O)cc1SCC(F)(F)F [Compound 92] | 3.22 | 3.14 | – | 100 | – |
| Cc1cc(C)c([S+]([O-])CC(F)(F)F)cc1-n1cnc2sccc2c1=O (stereo not shown) [Compound 97] | 2.15 | 2.11 | 90 | – | – |
| Cc1cc(F)c(-n2cnc3ccsc3c2=O)cc1SCC(F)(F)F [Compound 108] | 3.01 | 2.90 | 90 | – | – |
| Cc1cc(F)c(-n2cnc3ccsc3c2=O)cc1[S+]([O-])CC(F)(F)F (stereo not shown) [Compound 113] | 2.35 | 2.31 | 90 | – | – |

| Compound | logP[a] [1] | logP[b] [1] | nematicidal effect in % (formation of galls) [2] [%] | efficacy in % (spider mites killed) [3] [%] | other results |
| --- | --- | --- | --- | --- | --- |
| Cc1cc(F)c(-n2cnc3c(Cl)csc3c2=O)cc1[S+]([O-])CC(F)(F)F (stereo not shown) [Compound 114] | 2.43 | 2.38 | 90 | – | – |
| Cc1ccc(-n2cnc3nsc(C(C)(C)C)c3c2=O)cc1SCC(F)(F)F [Compound 116] | 4.05 | 3.96 | – | 90 | – |
| CC(C)(C)c1snc2ncn(-c3ccc(Cl)c(SCC(F)(F)F)c3)c(=O)c12 [Compound 117] | 4.06 | 3.97 | – | 90 | – |
| Cc1cc(F)c(-n2nnc3c(cnn3C)c2=O)cc1SCC(F)(F)F [Compound 119, 3-{2-Fluoro-4-methyl-5-[(2,2,2-trifluoroethyl)sulphanyl]phenyl}-7-methyl-3,7-dihydro-4H-pyrazolo[3,4-d][1,2,3]triazin-4-one] | – | – | – | 90 | chromatographic logP ([1]; pH 2.7, acidic range, pH 2.7, 0.1% aqueous formic acid / acetonitrile, read-out: log P[a]): 3.16; chromatographic logP ([1]; pH 2.7, method [a], read-out: logP[a]): 3.16; chromatographic logP ([1]; pH 7.8, method [b], read-out: logP[b]): 3.13; chromatographic logP ([1]; pH 7.8, neutral range, pH 7.8, 0.001 molar aqueous ammonium bicarbonate / acetonitrile, read-out: log P[b]): 3.13 |
| Cc1ccc(-n2cnc3cnn(C)c3c2=O)cc1[S+]([O-])CC(F)(F)F (stereo not shown) [Compound 142] | – | – | 100 | 100 | – |
| CCc1nc2cnn(C)c2c(=O)n1-c1cc(SCC(F)(F)F)c(C)cc1F [Compound 146] | – | – | 90 | – | – |
| CCc1nc2cnn(C)c2c(=O)n1-c1cc([S+]([O-])CC(F)(F)F)c(C)cc1F (stereo not shown) [Compound 147] | – | – | 100 | 100 | – |
| Cc1cc(F)c(-n2c(C)nc3cnn(CC4CC4)c3c2=O)cc1SCC(F)(F)F [Compound 168] | – | – | 90 | – | – |
| Cc1nc2c(=O)n(-c3cc([S+]([O-])CC(F)(F)F)c(C)cc3F)c(C)nc2s1 (stereo not shown) [Compound 185] | – | – | – | 90 | – |
| Cc1nc2c(=O)n(-c3cc([S+]([O-])CC(F)(F)F)c(C)cc3C)c(C)nc2s1 (stereo not shown) [Compound 186] | – | – | – | 90 | – |
| Cc1nc2c(=O)n(-c3cc(SCC(F)(F)F)c(C)cc3F)cnc2s1 [Compound 189] | – | – | – | 90 | – |
| Cc1nc2c(=O)n(-c3cc([S+]([O-])CC(F)(F)F)c(C)cc3F)cnc2s1 (stereo not shown) [Compound 190] | – | – | – | 90 | – |
| Cc1cc(F)c(-n2cnc3nsc(C(C)(C)C)c3c2=O)cc1[S+]([O-])CC(F)(F)F (stereo not shown) [Compound 192] | – | – | – | 90 | – |
| Cc1cc(F)c(-n2cnc3onc(C(C)C)c3c2=O)cc1SCC(F)(F)F [Compound 193] | – | – | – | 100 | – |
| Cc1cc(F)c(-n2cnc3onc(C(F)(F)F)c3c2=O)cc1SCC(F)(F)F [Compound 197] | – | – | – | 100 | – |
| CCc1nsc2ncn(-c3cc([S+]([O-])CC(F)(F)F)c(C)cc3F)c(=O)c12 (stereo not shown) [Compound 203] | – | – | – | 100 | – |
| Cc1cc(F)c(-n2cnc3c(C)n(C)nc3c2=O)cc1SCC(F)(F)F [Compound 213] | – | – | – | 100 | – |
| Cc1cc(F)c(-n2cnc3c(C)n(C)nc3c2=O)cc1[S+]([O-])CC(F)(F)F (stereo not shown) [Compound 214] | – | – | – | 90 | – |
| Cc1cc(F)c(-n2cnc3cn(C)nc3c2=O)cc1[S+]([O-])CC(F)(F)F (stereo not shown) [Compound 216] | – | – | – | 100 | – |
| Cc1cc(F)c(-n2cnc3csc(C)c3c2=O)cc1SCC(F)(F)F [Compound 217] | – | – | – | 90 | – |
| Cc1cc(F)c(-n2cnc3csc(C)c3c2=O)cc1[S+]([O-])CC(F)(F)F (stereo not shown) [Compound 218] | – | – | – | 90 | – |
| Cc1cc(F)c(-n2cnc3c(C)scc3c2=O)cc1SCC(F)(F)F [Compound 219] | – | – | – | 100 | – |
| Cc1cc(F)c(-n2cnc3c(C)scc3c2=O)cc1[S+]([O-])CC(F)(F)F (stereo not shown) [Compound 220] | – | – | – | 90 | – |
| Cc1cc2ncn(-c3cc([S+]([O-])CC(F)(F)F)c(C)cc3F)c(=O)c2o1 (stereo not shown) [Compound 222] | – | – | – | 100 | – |
